Here are results for 1 compound from paper PMC8218918, “The Cyr61 Is a Potential Target for Rotundifuran, a Natural Labdane-Type Diterpene from Vitex trifolia L., to Trigger Apoptosis of Cervical Cancer Cells” (Oxidative Medicine and Cellular Longevity, 2021).

For this assay, the target named is T1, Cyr61 (Homo sapiens, UniProt O00622).
T1 construct: gene CCN1; Cyr61 protein (Mammalian, C-Fc)
T1 sequence (O00622 25-381): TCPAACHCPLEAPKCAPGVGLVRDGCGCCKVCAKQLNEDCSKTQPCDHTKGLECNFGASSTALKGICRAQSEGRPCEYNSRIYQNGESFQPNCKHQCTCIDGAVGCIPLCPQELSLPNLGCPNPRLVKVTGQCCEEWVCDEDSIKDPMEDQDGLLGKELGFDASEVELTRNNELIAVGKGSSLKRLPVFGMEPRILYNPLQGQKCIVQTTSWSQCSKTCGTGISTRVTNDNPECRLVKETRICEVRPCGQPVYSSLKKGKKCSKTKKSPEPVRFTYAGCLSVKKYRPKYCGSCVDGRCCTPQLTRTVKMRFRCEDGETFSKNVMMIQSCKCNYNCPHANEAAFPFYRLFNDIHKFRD
Nature of the assay: Microscale thermophoresis with RED-NHS labelled recombinant Cyr61; supported by DARTS and CETSA in HeLa cells. It counts as binding.

As to `CC(=O)O[C@@H]1C[C@@H](C)[C@](O)(CCc2ccoc2)[C@@]2(C)CCCC(C)(C)[C@H]12` [RTF, Rotundifuran], the dissociation constant Kd was 3.8 ± 4.5 µM.
